Measured values published in patent US20250367225A1 (priority 2022, published 2025).
Entries after “also recorded” stand apart in the source; their conditions may differ. Read-outs that look alike come from different tables or passages of the source.

Experiments:
[1] = tested on: ic-SARS-COV-2-mNeon infection in Huh7 cells; type: cell-based, human; settings: for inhibition of ic-SARS-COV-2-mNeon infection by supernatant of stimulated human iNKT cells: 1 μg/mL lipid, iNKT + HeLa-hCD1d 24 h, supernatant on Huh7 cells
[2] = tested on: human RSV A2 strain; type: in vivo, BALB/c mice; settings: 2 μg IN 2 days prior, 600,000 pfu RSV A2
[3] = tested on: influenza A virus (H1N1) PR/8/34 (PR8) strain; test: Influenza A PR8 challenge of C57BL/6 mice; type: in vivo
[4] = tested on: SARS-COV-2 (USA/WA1); test: Direct antiviral effect against SARS-COV-2 in Vero E6 cells (CPE); type: cell-based; settings: Vero E6, MOI 0.1, 70 h
Procedure: After 30 min, SARS-COV-2 (USA/WA1) was added to each well to final MOI 0.1. Cells were incubated at 37 °C/5% CO2 for 70 h prior to scoring CPE. Percent inhibition was calculated from fold reduction in CPE over control wells receiving no drug. Remdesivir (RDV) was used as a positive control for the assay. Phosphatidylethanolamine (PE) and Biotin-phosphatidylethanolamine (B-PE) were used as a negative control. […] C57BL/6 mice (N=10) were given 2 μg of 7DW8-5 or saline by IN route 2 days before intranasal challenge with 5,000 pfu (lethal dose) of the PR8 strain. Kaplan-Meier Survival curve was plotted.

[5] = tested on: cytokines/chemokines; test: Cytokine/chemokine 31-Plex profile after intranasal administration; type: in vivo, BALB/c mice; settings: 2 μg IN; one day after; BAL, nasal turbinate and lung homogenates, sera
[6] = tested on: IFNγ; type: in vivo, BALB/c mice; settings: 2 μg IN; 24 h; nasal turbinate and lung homogenate supernatants, sera
[7] = tested on: lung mononuclear cells; test: Single-cell gene-expression analysis of lung mononuclear cells; type: in vivo, BALB/c mice; settings: 2 μg IN; 24 h; lung CD45+ cells
[8] = tested on: splenocytes; test: IFN-γ-secreting splenocytes in response to glycolipids in culture (mouse); type: cell-based
Excerpt: (§1) FIGS. 12A-B show relative number of IFN-γ-secreting splenocytes in hamster versus mouse in response to glycolipids in culture.
(§2) The relative number of IFN-γ-secreting splenocytes in hamster versus mouse in response to glycolipids in culture are shown in FIGS. 12A-B. 7DW8-5 administration affects IFN-γ-secreting splenocyte numbers in hamsters as shown in FIG. 12A. Cytokine induction

[9] = tested on: splenocytes; test: IFN-γ-secreting splenocytes in response to glycolipids in culture (hamster); type: cell-based
Excerpt: as §1, §2

[10] = Toxicity noted in mice in the current study; type: in vivo
Excerpt: (§3) Without being bound by theory, 7DW8-5 can be an agent for pre-exposure prophylaxis to prevent infections by SARS-COV-2, RSV, influenza virus, and possibly other clinically important respiratory viruses. It is a chemical compound that is thermostable and thus simple to ship and store, cheap to manufacture, and easy to administer intranasally. It is expected that 7DW8-5 is similarly effective in people. […] Second, iNKT cells constitute up to 1% of peripheral blood mononuclear cells in both humans and mice^38,39, although the variability is greater among humans^38.

[11] = Toxicity noted in hamsters in the current study; type: in vivo
Excerpt: as §3

[12] = Thermostability (stated); type: physicochemical; settings: stated in discussion, no test described
[13] = up to 100 μg intramuscularly; cited from earlier work
[14] = tested on: mouse iNKT cells; settings: mouse iNKT cells in vitro; cited from earlier work
[15] = tested on: human iNKT cells; settings: human iNKT cells in vitro; cited from earlier work
[16] = 6 IV doses of 0.12 mg/kg, cancer patients; cited from earlier work

Compound: CCCCCCCC/C=C\CCCCCCCC(=O)OC[C@H](COP(=O)(O)OCCNC(=O)CCCCCN)OC(=O)CCCCCCC/C=C\CCCCCCCC [1,2-dioleoyl-sn-glycero-3-phosphoethanolamine-N-(hexanoylamine), reference compound]
- inhibition of ic-SARS-COV-2-mNeon infection by supernatant of stimulated human iNKT cells [1]: not

Compound: CCCCCCCCCCCCCC[C@@H](O)[C@@H](O)[C@H](CO[C@H]1O[C@H](CO)[C@H](O)[C@H](O)[C@H]1O)NC(=O)CCCCCCCCCCc1ccc(F)cc1 [7DW8-5]
- body weight [2]: significantly prevented weight loss
- virus replication in lung tissues ([2]; day 4, TCID50 in Hep2 cells): inhibited virus replication; also recorded: decreased
- body weight ([3]; 2 μg IN 2 days prior, 5,000 pfu PR8, day 3): significantly maintained body weight
- body weight loss ([3]; 2 μg IN one day before 200 pfu PR8, day 3 (FIG. 7)): lack of body weight loss
- body weight loss ([3]; 2 μg IN, 5000 pfu PR8, monitored every day after challenge (FIG. 8C)): ameliorated
- survival ([3]; 2 μg IN, lethal dose 5×10^3 PFU PR8, all control mice died by Day 10): 8 of 10 and higher probability of survival
- direct antiviral activity against SARS-COV-2 in vitro [4]: no direct antiviral activity; also recorded: lack of a direct antiviral effect
- cytokines/chemokines incl. IFN-γ, IL-5, IL-6, IP-10, TNF-α, MCP1, MIG [5]: Marked upregulation
- IFN-γ induction by ELISA [6]: No evidence of IFN-γ induction; also recorded: minimal level
- IFN-γ production in proliferative NK cells, T cells, iNKT cells (single-cell analysis) [7]: apparent shift toward IFN-γ production
- IFN-γ-secreting splenocytes [8]: increases
- IFN-γ-secreting splenocyte numbers [9]: affects
- inhibition of ic-SARS-COV-2-mNeon infection by supernatant of stimulated human iNKT cells [1]: display anti-viral activity; also recorded: significantly inhibit
- inhibition by supernatant with neutralizing anti-human IFN-γ Ab added ([1]; anti-human IFN-γ antibody 1 μg/mL): inhibited; also recorded: completely abolished
- toxicity [10]: lack of toxicity
- toxicity [11]: lack of toxicity
- thermostability [12]: thermostable
- adverse reactions [13]: did not lead to any adverse reactions
- immunostimulatory activity compared with α-GalCer [14]: even more potent immunostimulatory activity
- immunostimulatory activity [15]: potent stimulatory effect

Compound: CCCCCCCCCCCCCCCCCCCCCCCCCC(=O)NC(CO[C@H]1O[C@H](CO)[C@H](O)[C@H](O)[C@H]1O)[C@H](O)[C@H](O)CCCCCCCCCCCCCC (stereo partly drawn) [α-GalCer, N-[(3S,4R)-3,4-dihydroxy-1-[(2S,3R,4S,5R,6R)-3,4,5-trihydroxy-6-(hydroxymethyl)oxan-2-yl]oxyoctadecan-2-yl]hexacosanamide]
- toxicity [16]: without evidence of toxicity
